Laboratory results from ChEMBL document CHEMBL1201862, “PubChem BioAssay data set” (2004).
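Five compound concentrations were applied to cells in 96-well plates for 48 hours; endpoints were derived by simple linear interpolation of the resulting dose-response curve. The concentration for 50% growth inhibition is given as GI50.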 The source made the active and inactive calls. Rule as the data show it: active = GI50 up to about 1.1 µM and inactive = higher.

How the values were obtained:
Assay in all cases: DTP human tumour cell line panel, 48 h
[1] = system: NCI-H23
[2] = system: SF-295
[3] = system: NCI-H226
[4] = system: SF-268
[5] = system: UO-31
[6] = system: SNB-75
[7] = system: HT-29
[8] = system: OVCAR-3
[9] = system: UACC-62
[10] = system: SNB-19
[11] = system: SK-OV-3
[12] = system: ACHN
[13] = system: DU-145
[14] = system: 786-0
[15] = system: T47D
[16] = system: OVCAR-4
[17] = system: KM-20L2
[18] = system: Malme-3M
[19] = system: MCF7
[20] = system: OVCAR-8
[21] = system: A498
[22] = system: HOP-62
[23] = system: SF-539
[24] = system: K562
[25] = system: SR
[26] = system: U-251
[27] = system: KM12
[28] = system: PC-3
[29] = system: A549
[30] = system: SK-MEL-2
[31] = system: TK-10
[32] = system: BT-549
[33] = system: DLD-1
[34] = system: HOP-92
[35] = system: M19-MEL
[36] = system: HCT-116
[37] = system: MDA-MB-231
[38] = system: SNB-78
[39] = system: SW-620
[40] = system: RPMI-8226
[41] = system: DMS-273
[42] = system: HCC 2998
[43] = system: OVCAR-5
[44] = system: RXF 393
[45] = system: HCT-15
[46] = system: MDA-MB-435
[47] = system: NCI/ADR-RES
[48] = system: LOX IMVI
[49] = system: SN12C
[50] = system: SK-MEL-5
[51] = system: SK-MEL-28
[52] = system: IGROV-1
[53] = system: Hs-578T
[54] = system: CCRF-CEM
[55] = system: MOLT-4
[56] = system: CAKI-1
[57] = system: EKVX
[58] = system: NCI-H522
[59] = system: LXFL 529
[60] = system: DMS-114
[61] = system: HL-60
[62] = system: NCI-H460
[63] = system: XF498
[64] = system: M14
[65] = system: COLO 205

Measured: GI50

NC(=O)N=C(N(Cc1ccccc1)Cc1ccccc1)N(Cc1ccccc1)Cc1ccccc1
> 28.4 µM: [45]
inactive: [1] 9.42 µM | [2] 3.91 µM | [3] > 100 µM | [4] 37.2 µM | [5] > 100 µM | [6] 13.3 µM | [7] 4 µM | [8] 5.08 µM | [9] 8.39 µM | [10] > 43.9 µM | [11] > 58.7 µM | [12] > 24.4 µM | [13] > 100 µM | [14] 14.9 µM | [15] > 100 µM | [16] 6.22 µM | [17] 2.69 µM | [18] > 100 µM | [19] 7.29 µM | [20] 14.4 µM | [21] 39.8 µM | [22] 15.3 µM | [23] 28.1 µM | [24] > 100 µM | [25] > 100 µM | [26] 7.45 µM | [27] > 100 µM | [28] 4.17 µM | [29] > 100 µM | [30] > 100 µM | [31] > 65.3 µM | [32] > 100 µM | [33] 4.83 µM | [34] 4.3 µM | [35] > 100 µM | [36] 3.37 µM | [37] 15.3 µM | [38] 25.1 µM | [39] > 24.3 µM | [40] 8.02 µM | [41] 3.41 µM | [42] 5.22 µM | [43] > 100 µM | [44] > 100 µM | [46] 3.72 µM | [47] > 100 µM | [48] 5.89 µM | [49] 6.08 µM | [50] > 20.3 µM | [51] > 100 µM | [52] 8.97 µM | [53] 97.5 µM | [54] > 100 µM | [55] > 100 µM | [56] > 100 µM | [57] > 100 µM | [58] 6.43 µM | [59] 4.8 µM

COC(=O)[C@]12CSCN1C(=O)C(C(C)=O)=NN2C(=O)[C@](OC)(c1ccccc1)C(F)(F)F
> 100 µM: [45]
inactive: [1] > 100 µM | [2] > 100 µM | [3] 88.9 µM | [4] > 100 µM | [5] > 100 µM | [6] 8.17 µM | [7] > 100 µM | [8] > 100 µM | [9] > 100 µM | [10] > 100 µM | [12] > 100 µM | [14] > 100 µM | [16] > 100 µM | [17] > 100 µM | [18] > 100 µM | [20] > 100 µM | [60] > 100 µM | [22] > 100 µM | [61] > 10 µM | [23] > 100 µM | [24] > 100 µM | [25] > 10 µM | [26] > 100 µM | [27] > 100 µM | [29] > 100 µM | [30] > 100 µM | [62] > 100 µM | [31] > 100 µM | [35] > 100 µM | [36] > 100 µM | [38] > 100 µM | [39] > 100 µM | [40] > 100 µM | [41] > 100 µM | [43] > 100 µM | [44] 90.6 µM | [63] > 100 µM | [48] > 100 µM | [49] > 100 µM | [50] > 100 µM | [51] > 100 µM | [52] > 100 µM | [54] > 10 µM | [55] > 100 µM | [57] > 100 µM | [64] > 100 µM | [65] > 100 µM | [58] 88.7 µM | [59] > 100 µM
